Test results published in PubChem BioAssay AID1996.
Values after ≈ are worked out from the molar mass of the structure shown.

Conditions: buffer; pH 7.4; 200.0 µM
With `O=C(O)/C=C/c1ccc(Oc2ncccn2)cc1` the solubility kinetic was > 36.3 µg/mL.
Work on `O=C(NCc1ccco1)c1cc(Cl)nc(Cl)c1` yielded a solubility kinetic of 40.3 µg/mL (≈ 149 µM).
Work on `NC(=[NH2+])SCc1[nH+]cccc1O.[Cl-]` yielded a solubility kinetic of 35.3 µg/mL.
For `O=C(O)c1cc(O)ccc1NC(=O)C1CCCO1` (stereo unspecified), the solubility kinetic was 30.1 µg/mL (≈ 120 µM).
For `O=C(COC(=O)c1cnccn1)c1ccc(Cl)cc1`, the solubility kinetic was 38.4 µg/mL (≈ 139 µM).
Work on `O=C(c1ccco1)N1CCN(Cc2nc3ccccc3[nH]2)CC1` yielded a solubility kinetic of 41.2 µg/mL (≈ 133 µM).
For `O=C(O)c1cccc(-n2c(/C=C/c3ccccc3)nc3ccccc3c2=O)c1`, the solubility kinetic was > 55.3 µg/mL.
For `C=CCN(CC=C)C(=S)Nc1ccc(OC)c(OC)c1`, the solubility kinetic was > 43.9 µg/mL.
In the case of `COc1ccccc1NC(=O)c1cc(=O)[nH]c2ccccc12`, the solubility kinetic is reported as 29.7 µg/mL (≈ 101 µM).
`O=C1CCCC2=C1C(c1ccncc1)n1c(nc3ccccc31)N2` (stereo unspecified) gave a solubility kinetic of 6.7 µg/mL (≈ 21.2 µM).
With `CC(=O)c1c(OC(=O)c2cccc(Cl)c2)c2ccccc2n1C` the solubility kinetic was < 0.7 µg/mL.
Work on `COc1cccc(NC(=O)CN2CCCCCC2)c1.Cl` yielded a solubility kinetic of 44.1 µg/mL.
In the case of `CN1CCCN(C(=O)CNC(=O)Cc2ccccc2)CC1`, the solubility kinetic is reported as > 43.4 µg/mL.
Work on `Cc1ccc(OC(C)C(=O)Nc2ccncc2)cc1` (stereo unspecified) yielded a solubility kinetic of 31.7 µg/mL (≈ 124 µM).
For `CC(C)NC(=O)c1cccc2c1-c1ccccc1C2=O`, the solubility kinetic was 13.3 µg/mL (≈ 50.1 µM).
In the case of `COc1ccc(OCC(=O)OCC(=O)Nc2cc(S(=O)(=O)N3CCOCC3)ccc2Cl)cc1`, the solubility kinetic is reported as 62.5 µg/mL (≈ 125 µM).
For `CC1CC(=O)Nc2ccccc2N1C(=O)Nc1ccccc1` (stereo unspecified), the solubility kinetic was 30.2 µg/mL (≈ 102 µM).
For `Cc1ccc(NC(=O)C2CCN(C(=O)c3ccco3)CC2)cc1C`, the solubility kinetic was 45.1 µg/mL (≈ 138 µM).
For `CC(=O)c1cccc(CN2CCN(C3CCCC3)C(CCO)C2)c1` (stereo unspecified), the solubility kinetic was > 49.6 µg/mL.
`CCN(CC)c1ccc(CNc2nc3ccccc3n2C(C)C)cc1` gave a solubility kinetic of 0.3 µg/mL (≈ 0.892 µM).
`Nc1cccnc1Oc1ccc(F)cc1` gave a solubility kinetic of 28.8 µg/mL (≈ 141 µM).
`COc1cc2nc(Cl)nc(N3CCCCC3)c2cc1OC` gave a solubility kinetic of 1.2 µg/mL (≈ 3.9 µM).
With `O=C(c1cc(-c2ccc(F)cc2)on1)N1CCOCC1` the solubility kinetic was > 41.4 µg/mL.
For `O=C1C(Nc2ccccc2)=CC(c2ccc(O)cc2)N1c1ccccc1` (stereo unspecified), the solubility kinetic was 2 µg/mL (≈ 5.84 µM).
Work on `O=[N+]([O-])c1ccc(Sc2ccccn2)nc1` yielded a solubility kinetic of 34.9 µg/mL (≈ 150 µM).
In the case of `O=C(O)c1ccc(N2C(=O)c3cccc4cccc(c34)C2=O)cc1`, the solubility kinetic is reported as > 47.6 µg/mL.
For `O=C(NCc1ccccc1Br)C1CCCO1` (stereo unspecified), the solubility kinetic was > 42.6 µg/mL.
With `COc1ccc(NC(=O)C2=NN(C3CCS(=O)(=O)C3)C(=O)CC2)cc1S(N)(=O)=O` (stereo unspecified) the solubility kinetic was > 66.7 µg/mL.
In the case of `Cn1cnnc1SCC(=O)Nc1ccccc1Oc1ccccc1`, the solubility kinetic is reported as > 51.1 µg/mL.
In the case of `O=C(CSc1ccccc1C(=O)O)NCC1CCCCC1`, the solubility kinetic is reported as 44.2 µg/mL (≈ 144 µM).
Work on `COc1ccc(NC(=O)COc2ccccc2)cc1NC(=O)c1ccco1` yielded a solubility kinetic of 1.2 µg/mL (≈ 3.28 µM).
For `O=C(NCCc1ccc(Cl)cc1)c1cccs1`, the solubility kinetic was > 39.9 µg/mL.
In the case of `Cc1ccc2oc(C(=O)N(C)Cc3cnccn3)c(C)c2c1`, the solubility kinetic is reported as > 44.3 µg/mL.
Compound `Cc1cc(NC(=O)c2cc(S(=O)(=O)N3CCCCC3)ccc2C)no1` has a solubility kinetic of 14.2 µg/mL (≈ 39.1 µM).
With `Cc1nc(SCC(=O)NCCN2C(=O)CSC2=O)nc(C)c1C` the solubility kinetic was > 53.2 µg/mL.
Compound `Cc1nc2ccccc2n1CC(=O)c1ccccc1` has a solubility kinetic of 37 µg/mL (≈ 148 µM).
With `COc1cc(OC)c(C(=O)OCC(=O)Nc2ccc(S(=O)(=O)N3CCOCC3)cc2)cc1OC` the solubility kinetic was 9.6 µg/mL (≈ 19.4 µM).
In the case of `CCOC(=O)c1nc(NCc2ccccc2)c2ccccc2n1`, the solubility kinetic is reported as 27.4 µg/mL (≈ 89.1 µM).
In the case of `Cc1ccc(-c2nc(CN(C)C3CCOC3)c(C)o2)s1` (stereo unspecified), the solubility kinetic is reported as > 43.9 µg/mL.
In the case of `O=C(COc1ccccc1)Nc1ccncc1`, the solubility kinetic is reported as > 34.2 µg/mL.
Work on `COc1cccc(C(=O)NCc2ccc3[nH]c(C)cc3c2)c1` yielded a solubility kinetic of 15.8 µg/mL (≈ 53.7 µM).
For `CC(=O)Nc1cccc(NC(=O)C2CC(=O)N(CCc3ccc(F)cc3)C2)c1` (stereo unspecified), the solubility kinetic was 38.4 µg/mL (≈ 100 µM).
For `CCC(=NC(C)c1ccccc1)c1c(O)[nH]c(=O)[nH]c1=O` (stereo unspecified), the solubility kinetic was > 43.1 µg/mL.
With `O=C(NC12CC3CC(CC(C3)C1)C2)c1cccc([N+](=O)[O-])c1` the solubility kinetic was 7.3 µg/mL (≈ 24.3 µM).
In the case of `COc1ccc(C2NC(=O)N(C)C(C)=C2[N+](=O)[O-])cc1` (stereo unspecified), the solubility kinetic is reported as > 41.6 µg/mL.
With `COCc1cc(OC(=O)N(C)C)nc(-c2ccc(C)c(Cl)c2)n1` the solubility kinetic was 0.7 µg/mL (≈ 2.08 µM).
In the case of `CCc1ccc(CN2CCN(c3ncccn3)CC2)cc1`, the solubility kinetic is reported as 29.9 µg/mL (≈ 106 µM).
For `Cc1nc2ccccn2c1C(=O)NNC(=O)Nc1cccc(C(F)(F)F)c1`, the solubility kinetic was > 56.6 µg/mL.
In the case of `O=C(O)c1ccc(/C=N/n2cc(-c3ccccc3)[nH]c2=S)cc1`, the solubility kinetic is reported as > 48.5 µg/mL.
With `C/C(=N\NC(=O)c1ccn(C)n1)c1ccco1` the solubility kinetic was > 34.8 µg/mL.
For `Cl.c1ccc(C2CNCCc3ccccc32)cc1` (stereo unspecified), the solubility kinetic was > 39 µg/mL.
With `CN(Cc1ccccc1)C(=O)COC(=O)c1cc2ccccc2oc1=O` the solubility kinetic was > 52.7 µg/mL.
`NC(Cc1ccc(OC(F)F)cc1)C(=O)O` (stereo unspecified) gave a solubility kinetic of 32.7 µg/mL (≈ 141 µM).
For `COc1ccc(C(C)=O)cc1COc1ccccc1[N+](=O)[O-]`, the solubility kinetic was < 0.6 µg/mL.
With `Cc1cccc(N2C(=O)c3ccc(Br)cc3C2=O)n1` the solubility kinetic was > 47.6 µg/mL.
For `Cc1c(Cl)cccc1NC(=S)NC1CCN(C(C)C)CC1`, the solubility kinetic was > 48.9 µg/mL.
With `CCCc1nnc(SCC(=O)NC2CC2)n1C` the solubility kinetic was > 38.2 µg/mL.
With `O=C1C(Cl)=C(N2CCCCCC2)C(=O)N1c1ccc(Br)cc1` the solubility kinetic was 15.1 µg/mL (≈ 39.4 µM).
In the case of `Cc1ccc(C)c(NC(=O)c2cnccn2)c1`, the solubility kinetic is reported as 23.9 µg/mL (≈ 105 µM).
`O=C(Nc1cc2c3c(c1)CC(=O)N3CCC2)c1ccco1` gave a solubility kinetic of 39.6 µg/mL (≈ 140 µM).
Compound `O=C(OCC(=O)N1CCc2ccccc21)[C@@H]1CC(O)CN1S(=O)(=O)c1ccc(Cl)cc1` (stereo partly specified) has a solubility kinetic of 50.4 µg/mL (≈ 108 µM).
With `COc1ccc2[nH]c(=S)cc(C)c2c1` the solubility kinetic was 8.9 µg/mL (≈ 43.4 µM).
`CC(Oc1cccc(Cl)c1)C(=O)NCc1ccc(S(N)(=O)=O)cc1` (stereo unspecified) showed a solubility kinetic of 53.3 µg/mL (≈ 145 µM).
`Cc1ccc(S(=O)(=O)N2CCCCC2)cc1NC(=O)COC(=O)c1cccn1C` showed a solubility kinetic of 9 µg/mL (≈ 21.5 µM).
For `Cc1c(C)n(Cc2ccccc2)c2ncnc(NCCN(C)C)c12`, the solubility kinetic was > 48.5 µg/mL.
With `Cc1ccc(NC(=O)CN(C)C(=O)COc2cccc3cccnc23)cc1` the solubility kinetic was 52.4 µg/mL (≈ 144 µM).
`Nc1cc(N)nc(SCc2cccc(F)c2)n1` gave a solubility kinetic of 24.9 µg/mL (≈ 99.5 µM).
`CC(C)(C)c1cc(/C=C2\NC(=O)NC2=O)cc(C(C)(C)C)c1O` gave a solubility kinetic of 6.6 µg/mL (≈ 20.9 µM).
With `O=C(COC(=O)c1cccc(S(=O)(=O)N2CCOCC2)c1)NCc1ccc2c(c1)OCO2` the solubility kinetic was 66.8 µg/mL (≈ 144 µM).
`COC(=O)c1sc(-c2cccs2)cc1N` gave a solubility kinetic of 7.2 µg/mL (≈ 30.1 µM).
With `CC1CN(C(=O)c2cc([N+](=O)[O-])cc([N+](=O)[O-])c2)CC(C)O1` (stereo unspecified) the solubility kinetic was > 46.4 µg/mL.
Work on `Nc1sc2c(c1C(=O)NCCc1ccccc1)CCC2` yielded a solubility kinetic of 17 µg/mL (≈ 59.4 µM).
In the case of `COc1ccc(NC(=O)C2CC(c3ccc(Cl)cc3)=NO2)cc1` (stereo unspecified), the solubility kinetic is reported as < 0.4 µg/mL.
With `Nc1ncnc(Oc2ccccc2F)c1[N+](=O)[O-]` the solubility kinetic was 34.3 µg/mL (≈ 137 µM).
In the case of `Cc1cc(NC(=O)c2cc(C(C)(C)C)oc2C)no1`, the solubility kinetic is reported as 0.9 µg/mL (≈ 3.43 µM).
For `C=CCOc1ccc(/C=C2\SC(=Nc3cccnc3)NC2=O)cc1`, the solubility kinetic was 0.7 µg/mL (≈ 2.07 µM).
In the case of `O=C(NCc1ccc(F)cc1)c1cccnc1C(=O)O`, the solubility kinetic is reported as > 41.1 µg/mL.
With `COc1ccc2nc(C)cc(Nc3ccc(C(=O)O)cc3)c2c1` the solubility kinetic was 40.5 µg/mL (≈ 131 µM).
Compound `O=S(=O)(c1ccc(Cl)cc1)N1CCN(c2ccccn2)CC1` has a solubility kinetic of 0.5 µg/mL (≈ 1.48 µM).
In the case of `CC(=O)c1cccc(NC(=O)C(C)OC(=O)CCc2nc3ccccc3c(=O)[nH]2)c1` (stereo unspecified), the solubility kinetic is reported as > 61.1 µg/mL.
With `O=C(CSCc1ccccc1F)NCc1ccccc1` the solubility kinetic was > 43.4 µg/mL.
Work on `Cn1c(=O)n(Cc2ccccc2Br)c2ccccc21` yielded a solubility kinetic of 7.8 µg/mL (≈ 24.6 µM).
For `CN(Cc1ccccc1)S(=O)(=O)c1ccc(N2CCOCC2)nc1`, the solubility kinetic was 2.5 µg/mL (≈ 7.2 µM).
For `O=C1Nc2ccccc2C(c2ccccc2)=NC1O` (stereo unspecified), the solubility kinetic was > 37.8 µg/mL.
For `Cc1ccc(OCC(=O)Nc2ccncc2)cc1`, the solubility kinetic was 35.1 µg/mL (≈ 145 µM).
For `Cc1ccc(/C(=N/Nc2ncnc3ccccc23)C(=O)O)cc1`, the solubility kinetic was > 45.9 µg/mL.
